Patent US9238639B2, “Aromatic ring compound” (TAKEDA PHARMACEUTICAL COMPANY LIMITED, priority 2012, dated 2016)

Biological target: T1, human GOAT (Homo sapiens, UniProt Q96T53)
T1 construct: made in house; host or cells: Sf9 insect cells (BacToBac baculovirus, pFastBac1 vector); microsome fraction
T1 sequence (Q96T53 1-435): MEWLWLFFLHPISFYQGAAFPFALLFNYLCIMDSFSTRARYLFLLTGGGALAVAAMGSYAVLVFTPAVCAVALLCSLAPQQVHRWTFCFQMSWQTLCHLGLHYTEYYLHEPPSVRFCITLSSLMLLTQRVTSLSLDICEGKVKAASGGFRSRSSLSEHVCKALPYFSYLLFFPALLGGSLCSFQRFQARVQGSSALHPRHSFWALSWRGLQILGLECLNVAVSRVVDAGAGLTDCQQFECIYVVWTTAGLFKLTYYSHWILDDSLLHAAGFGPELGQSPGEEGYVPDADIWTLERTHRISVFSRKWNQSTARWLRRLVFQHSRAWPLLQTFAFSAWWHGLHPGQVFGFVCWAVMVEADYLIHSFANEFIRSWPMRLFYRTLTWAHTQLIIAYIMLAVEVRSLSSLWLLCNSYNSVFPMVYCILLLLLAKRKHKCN
Assay: GOAT enzyme activity measurement by HTRF method (human GOAT-expressing microsome fraction)
Assay type: biochemical
Conditions: 10 μM compound; human GOAT-expressing Sf9 microsome fraction; octanoyl-CoA and Ghrelin-biotin substrates; 0% control without compound, 100% control without enzyme
Protocol: Human GOAT (Accession NO: EU518495) cDNA was amplified by PCR including reaction of (1) 98° C., 1 min, (2) 35 repeats of 98° C., 10 sec·65° C., 15 sec·72° C., 80 sec, and (3) 72° C., 5 min, using human stomach cDNA library (Takara Bio) as a template and Pyrobest DNA Polymerase (Takara Bio). The amplified fragment was treated with restriction enzymes, inserted into Stu I/Not I sites of pFastBacl (Invitrogen) by using Ligation High (TOYOBO), and transfected into ECOS JM109 (Nippon Gene) to construct pFB/hGOAT.
Production of Baculovirus and Preparation of Insect Cell Microsome Fraction
For preparation of baculovirus from pFB/hGOAT, BacToBac baculovirus expression system (Invitrogen) was used. The virus titer was measured by Real-Time PCR using SYBR Green (Takara Bio). Sf9 cells were infected with the obtained baculovirus at Multiplicity of Infection (MOI)=0.2, and cultured for 70 hr. The Sf9 cells were recovered, suspended in a suspension buffer (TBS (0.3 M NaCl), 1 mM DTT, 1 mM EDTA, Complete (Roche) (1 tablet/50 mL)), and the cells were disrupted twice on ice at 20000 rpm, 30 sec using a polytron homogenizer. The cell disruption solution was centrifuged at 1000 rpm for 10 min at 4° C., the supernatant was further ultracentrifuged at 40000 rpm for 30 min at 4° C. and the precipitate was recovered. The obtained precipitate was suspended in the suspension buffer used above to give a human GOAT-expressing microsome fraction. The protein level was measured using BCA Protein assay Reagent (PIERCE).
Enzyme Activity Measurement by HTRF Method
A compound solution (2 μL) diluted with an assay buffer containing 50 mM Tris-HCl (pH 7.5), 0.5% TWEEN20, and Complete to 15% DMSO and 90 μg/mL human GOAT-expressing microsome fraction (2 μL) were incubated at room temperature for 20 min, after which a substrate mixed solution (2 μL) containing 30 μM octanoyl-CoA (CHEM-IMPLEX) and 3 μM Ghrelin-biotin ([…]epsilon aminocaproic acid-biotin (Greiner Coutom synthesis)) was added to 384 white small volume plate (Greiner). After reaction for 20 min, 2 μL of citrate buffer (pH3) (mixed solution of 0.1 M citric acid (39.8 mL) and 0.2 M Na2HPO4 (10.2 mL)), 2 μL of 25 nM anti-active ghrelin antibody (produced in mouse), 5 μL of Eu(K)-Anti Mouse IgG Pab (Cis Bio) 100-fold diluted with HTRF detection buffer (Cis Bio) and 5 μL of streptavidin-Xlent (Cis Bio) 66.6-fold diluted with HTRF detection buffer (Cis Bio) were added. After incubation at room temperature for 1 hr or longer, the fluorescence values at 620 nm and 665 nm were measured by Envision (PerkinElmer). The data was calculated [(665 nm signal/620 nm signal)×10^4], and the inhibitory activity against human GOAT was shown by the data where 0% control was without compound, and 100% control was without enzyme.

Structure (SMILES)	inhibition at 10 µM [%]
Cn1nc(C(F)(F)F)cc1COc1cc(C(F)(F)F)c2c(CC(=O)O)csc2c1 [Example 32, (6-((1-Methyl-3-(trifluoromethyl)-1H-pyrazol-5-yl)methoxy)-4-(trifluoromethyl)-1-benzothiophen-3-yl)acetic acid]	103
O=C(O)CNC(=O)Cc1csc2cc(OCc3ccc(Cl)cc3Cl)ccc12 [Example 55, N-((6-((2,4-Dichlorobenzyl)oxy)-1-benzothiophen-3-yl)acetyl)glycine]	95
COC(=O)Cc1csc2cc(OCc3cc(C(F)(F)F)nn3C)cc(F)c12 [Example 302, Methyl (4-fluoro-6-((1-methyl-3-(trifluoromethyl)-1H-pyrazol-5-yl)methoxy)-1-benzothiophen-3-yl)acetate]	99.9
Cc1ccc(COc2cc(C(F)(F)F)c3c(CC(=O)O)csc3c2)c(C)n1 [Example 31, (6-((2,6-Dimethylpyridin-3-yl)methoxy)-4-(trifluoromethyl)-1-benzothiophen-3-yl)acetic acid]	103
COC(=O)Cc1csc2cc(OCc3ccc(C(F)(F)F)nc3C)cc(F)c12 [Example 304, Methyl (4-fluoro-6-((2-methyl-6-(trifluoromethyl)pyridin-3-yl)methoxy)-1-benzothiophen-3-yl)acetate]	94.9
Cc1ccc(COc2cc(C)c3c(c2C)OCC3CC(=O)O)c(C)n1 (centres unmarked) [Example 289, (6-((2,6-Dimethylpyridin-3-yl)methoxy)-4,7-dimethyl-2,3-dihydro-1-benzofuran-3-yl)acetic acid]	94.8
O=C(O)Cc1csc2cc(S(=O)(=O)Cc3ccc(Cl)cc3Cl)ccc12 [Example 83, (6-((2,4-Dichlorobenzyl)sulfonyl)-1-benzothiophen-3-yl)acetic acid]	83
Cc1c(OCc2ccc(Cl)cc2Cl)cc(C)c2c(CC(=O)O)coc12 [Example 46, (6-((2,4-Dichlorobenzyl)oxy)-4,7-dimethyl-1-benzofuran-3-yl)acetic acid]	103
COC(=O)Cc1csc2cc(OCc3cc(C(F)(F)F)nn3C)cc(C)c12 [Example 11, Methyl(4-methyl-6-((1-methyl-3-(trifluoromethyl)-1H-pyrazol-5-yl)methoxy)-1-benzothiophen-3-yl)acetate]	95.2
COC(=O)Cc1csc2cc(OCc3ccc(Cl)cc3Cl)cc(C)c12 [Example 5, Methyl(6-((2,4-dichlorobenzyl)oxy)-4-methyl-1-benzothiophen-3-yl)acetate]	84.4
O=C(O)Cc1coc2c(Cl)c(OCc3ccc(Cl)cc3Cl)ccc12 [Example 42, (7-Chloro-6-((2,4-dichlorobenzyl)oxy)-1-benzofuran-3-yl)acetic acid]	100
COC(=O)Cc1csc2cc(OCc3cc(C)nn3C)cc(C)c12 [Example 7, Methyl(6-((1,3-dimethyl-1H-pyrazol-5-yl)methoxy)-4-methyl-1-benzothiophen-3-yl)acetate]	94.7
Cc1cc(OCc2ccc(Cl)cc2Cl)c(C)c2c1C(CC(=O)O)CO2 (centres unmarked) [Example 291, (6-((2,4-Dichlorobenzyl)oxy)-4,7-dimethyl-2,3-dihydro-1-benzofuran-3-yl)acetic acid]	96.2
Cc1nc(C(F)(F)F)ccc1COc1cc(C)c2c(CC(=O)O)csc2c1C [Example 24, (4,7-Dimethyl-6-((2-methyl-6-(trifluoromethyl)pyridin-3-yl)methoxy)-1-benzothiophen-3-yl)acetic acid]	105
CCOC(=O)CNC(=O)Cc1csc2cc(OCc3ccc(Cl)cc3Cl)ccc12 [Example 53, Ethyl N-((6-((2,4-dichlorobenzyl)oxy)-1-benzothiophen-3-yl)acetyl)glycinate]	56
O=C(O)CC1CSc2cc(OCc3ccc(Cl)cc3Cl)ccc21 (centres unmarked) [Example 50, (6-((2,4-Dichlorobenzyl)oxy)-2,3-dihydro-1-benzothiophen-3-yl)acetic acid]	99
COC(=O)Cc1c(C)sc2cc(OCc3ccc(C(F)(F)F)nc3C)cc(Cl)c12 [Example 308, Methyl (4-chloro-2-methyl-6-((2-methyl-6-(trifluoromethyl)pyridin-3-yl)methoxy)-1-benzothiophen-3-yl)acetate]	51.5
COC(=O)Cc1c(C)sc2cc(OCc3cc(C(F)(F)F)nn3C)cc(Cl)c12 [Example 306, Methyl (4-chloro-2-methyl-6-((1-methyl-3-(trifluoromethyl)-1H-pyrazol-5-yl)methoxy)-1-benzothiophen-3-yl)acetate]	99.5
COC(=O)Cc1csc2c(Cl)c(OCc3ccc(C(F)(F)F)nc3C)cc(Cl)c12 [Example 29, Methyl(4,7-dichloro-6-((2-methyl-6-(trifluoromethyl)pyridin-3-yl)methoxy)-1-benzothiophen-3-yl)acetate]	88.1
O=C(O)C[C@H]1COc2cc(OCc3ccc(Cl)cc3Cl)ccc21 [Example 263, ((3R)-6-((2,4-Dichlorobenzyl)oxy)-2,3-dihydro-1-benzofuran-3-yl)acetic acid]	86
Cc1ccc(COc2cc(Cl)c3c(CC(=O)O)csc3c2)c(C)n1 [Example 14, (4-Chloro-6-((2,6-dimethylpyridin-3-yl)methoxy)-1-benzothiophen-3-yl)acetic acid]	107
COC(=O)Cc1csc2c(Cl)c(OCc3cc(C(F)(F)F)nn3C)cc(Cl)c12 [Example 27, Methyl(4,7-dichloro-6-((1-methyl-3-(trifluoromethyl)-1H-pyrazol-5-yl)methoxy)-1-benzothiophen-3-yl)acetate]	92.7
CCC(=O)NCC[C@@H]1COc2cc(OCc3ccc(Cl)cc3Cl)ccc21 [Example 198, N-(2-((3S)-6-((2,4-Dichlorobenzyl)oxy)-2,3-dihydro-1-benzofuran-3-yl)ethyl)propanamide]	59
CCOC(=O)Cc1csc2cc(OCc3cc(C(F)(F)F)nn3C)ccc12 [Example 17, Ethyl(6-((1-methyl-3-(trifluoromethyl)-1H-pyrazol-5-yl)methoxy)-1-benzothiophen-3-yl)acetate]	88.9
COC(=O)Cc1csc2c(C)c(OCc3ccc(C(F)(F)F)nc3C)cc(C)c12 [Example 23, Methyl(4,7-dimethyl-6-((2-methyl-6-(trifluoromethyl)pyridin-3-yl)methoxy)-1-benzothiophen-3-yl)acetate]	62.8
Cc1cc(OCc2ccc(Cl)cc2Cl)cc2scc(CC(=O)O)c12 [Example 6, (6-((2,4-Dichlorobenzyl)oxy)-4-methyl-1-benzothiophen-3-yl)acetic acid]	103
COC(=O)Cc1csc2c(F)c(OCc3ccc(C(F)(F)F)nc3C)cc(Cl)c12 [Example 39, Methyl(4-chloro-7-fluoro-6-((2-methyl-6-(trifluoromethyl)pyridin-3-yl)methoxy)-1-benzothiophen-3-yl)acetate]	88.6
CC(=O)NCC[C@@H]1COc2cc(OCc3ccc(Cl)cc3Cl)ccc21 [Example 197, N-(2-((3S)-6-((2,4-Dichlorobenzyl)oxy)-2,3-dihydro-1-benzofuran-3-yl)ethyl)acetamide]	69
COCC1(C(=O)O)COc2cc(OCc3ccc(Cl)cc3Cl)ccc21 (centres unmarked) [Example 281, 6-((2,4-Dichlorobenzyl)oxy)-3-(methoxymethyl)-2,3-dihydro-1-benzofuran-3-carboxylic acid]	85
